Publication PMC11915835, “Enhancing the solubility of SARS-CoV-2 inhibitors to increase future prospects for clinical development” (Journal of Virology, 2025)
Where two headings read alike, the source gives them in different places.

Assays:
[1] = Chemical stability in PBS by UPLC; format: physicochemical; conditions: room temperature; for Integrity during the solubility study: up to 168 h, UPLC, 220 nm; for Peptide degradation after incubation in PBS: 2 weeks, UPLC 220 nm, disulfide peak after 1 day removed by TCEP
[2] = pH 7.4
[3] = test system: SARS-CoV-2 S BA.5; format: cell-based; conditions: for IC50: read-out: IC50, inhibition of S-mediated cell–cell fusion, SARS-CoV-2 BA.5; for IC90: read-out: IC90, inhibition of S-mediated cell–cell fusion, SARS-CoV-2 BA.5
[4] = target: SARS-CoV-2 tHRN peptide (44 residues) (Severe acute respiratory syndrome coronavirus 2, UniProt P0DTC2); format: binding
[5] = target: SARS-CoV-2 HRN peptide (55 residues) (Severe acute respiratory syndrome coronavirus 2, UniProt P0DTC2); format: binding; conditions: pH 7.4

Compound: Ac-DISQINASVVNIEYEIKKLEEVAKKLEESLIDLQELGSGSGC-NH2 [QE-L]
- Integrity during the solubility study [1]: remained intact
- Solubility relative to HRC-L [2]: ~ two-fold

Compound: Ac-PDVDLGDISQINASVVNIEYEIKKLEEVAKKLEESLIDLQEL-NH2 [QE-EXT]
- IC50 [3]: 5.6 ± 0.72 nM

Compound: Ac-DISQINASVVNIEYEIKKLEEVAKKLEESLIDLQEL-NH2 [QE]
- Tm of 1:1 mixture with tHRN ([4]; 5-95 °C): 65 +/- 0.5 °C
- Peptide degradation after incubation in PBS [1]: No peptide degradation was observed
- Temperature above which disruption of the helical assembly with HRN is detectable [5]: > 70 °C
- IC50 [3]: 7 ± 2.1 nM
- IC90 [3]: 14 ± 4 nM

Compound: CC[C@H](C)[C@H](NC(=O)[C@H](C)NC(=O)[C@H](CCC(=O)O)NC(=O)[C@H](CCC(=O)O)NC(=O)[C@H](CC(C)C)NC(=O)[C@H](CCCCN)NC(=O)[C@H](CCCCN)NC(=O)[C@H](CCSC)NC(=O)[C@H](CCC(=O)O)NC(=O)[C@H](Cc1ccc(O)cc1)NC(=O)[C@H](CCC(=O)O)NC(=O)[C@H](CC(C)C)NC(=O)[C@H](CC(=O)O)NC(=O)[C@H](CC(C)C)NC(=O)[C@H](Cc1ccccc1)NC(=O)[C@@H](NC(=O)[C@@H](NC(=O)[C@H](CC(N)=O)NC(=O)[C@@H](NC(=O)[C@H](CCC(N)=O)NC(=O)[C@H](CC(=O)O)NC(=O)[C@H](CC(C)C)NC(=O)[C@H](CO)NC(C)=O)[C@@H](C)CC)C(C)C)[C@@H](C)O)C(=O)N[C@@H](CCCCN)C(=O)N[C@@H](CCCCN)C(=O)N[C@@H](CC(C)C)C(=O)N[C@@H](CCC(=O)O)C(=O)N[C@@H](CCC(=O)O)C(=O)N[C@@H](CO)C(=O)N[C@@H](Cc1ccc(O)cc1)C(=O)N[C@H](C(=O)N[C@@H](CC(=O)O)C(=O)N[C@@H](CC(C)C)C(=O)N[C@@H](CCCCN)C(=O)N[C@@H](CCC(=O)O)C(=O)N[C@@H](CC(C)C)C(N)=O)[C@@H](C)CC [EK1, reference compound]
- Tm of 1:1 mixture with tHRN ([4]; pH 7.4): 38 ± 0.3 °C

Compound: Ac-SIDQINATFVDIEYEIKKLEEVAKKLEESYIDLKEL-NH2 [SK]
- Tm of 1:1 mixture with tHRN ([4]; 5-95 °C): 72 +/- 0.3 °C
- Peptide degradation after incubation in PBS [1]: No peptide degradation was observed
- Temperature above which disruption of the helical assembly with HRN is detectable [5]: > 70 °C
- IC50 [3]: 6.2 ± 1.1 nM
- IC90 [3]: 14 ± 2 nM

Compound: Ac-SIDQINATFVDIEYEIKKLEEVAKKLEESYIDLKELGSGSGC-NH2 [SK-L]
- Integrity during the solubility study [1]: remained intact
- Solubility relative to HRC-L [2]: ~ two-fold
